In US7138108B2, “Photoprotective UV-screening compositions comprising (phenylsulfonyl) acrylonitrile-substituted silanes/siloxanes” (L'Oreal, priority 2002, dated 2006):

Assay: UV absorption spectrum in ethanol (UV-A screening power)
Format: physicochemical
Conditions: UV (EtOH); for E1% / εmax: at λmax

SMILES	λmax	E1%	εmax
C=C(C)COc1ccc(C=C(C#N)S(=O)(=O)c2ccccc2)cc1 [2-benzenesulfonyl-3-[4-(2-methylallyloxy)phenyl]acrylonitrile]	345 nm	736	–
C[Si](C)(C)CCCOc1ccc(/C=C(\C#N)S(=O)(=O)c2ccccc2)cc1 [Example 1, 2-benzenesulfonyl-3-[4-(3-trimethylsilanylpropoxy)phenyl]acrylonitrile]	347 nm	813	32 500
CC(COc1ccc(/C=C(\C#N)S(=O)(=O)c2ccccc2)cc1)C[Si](C)(O[Si](C)(C)C)O[Si](C)(C)C (centres unmarked) [Example 2, [4-[2-methyl-3-[1,3,3,3-tetramethyl-1-[(trimethylsilyl)oxy]disiloxanyl]propyloxy]phenyl]-2-(benzenesulfonyl)acrylonitrile]	348 nm	632	35 500
